Measurements reported in US20230404913A1, “PHARMACEUTICAL FORMULATIONS FOR TREATING DISEASES ASSOCIATED WITH VOLTAGE-GATED SODIUM CHANNELS” (Xenon Pharmaceuticals, Inc., priority 2020, published 2023).
Read-outs that look alike come from different tables or passages of the source.

What was measured:
[1] = Pharmacokinetic study, 3-period crossover, plasma concentrations of Compound A by LC-MS/MS; assay type: in vivo, human; details: for AUC(0-inf) / AUC(0-t): human, plasma, oral, 50 mg, pediatric formulation, 50 mg single dose; for AUC(0-inf): read-out: AUC0-inf, mean; for AUC(0-t): read-out: AUC0-t, mean
Protocol: (§1) In this single center, open-label, randomized study, 24 subjects (8 per each arm) received Compound A adult immediate release tablet or granular formulation suitable for reconstitution formulation in a fasted or fed state (high fat meal) in a 3-period, 3-sequence crossover design. Compound A was formulated as a granular formulation suitable for reconstitution (“Compound A pediatric formulation”) as described herein.
(§2) A 50 mg dose was used in this adult PK study.
For each study period, subjects received one of the 3 following treatments:
(§3) Treatment A: Single doses of 50 mg Compound A pediatric formulation (1 sachet of granules) under fed conditions.
(§4) Treatment B: Single doses of 50 mg Compound A pediatric formulation (1 sachet of granules) under fasting conditions.
(§5) Treatment C: Single doses of 50 mg Compound A adult tablet formulation (1×50 mg IR tablet) under fasting conditions.
Three groups of 8 subjects were randomized to one of the following 3 sequences.
Following an overnight fast of at least 10 hours, subjects received a standardized high-fat, high calorie meal 30 minutes before administration. Subjects must have eaten the total content of this meal in 30 minutes or less.
Thirty minutes after the start of breakfast, subjects were administered the suspension (the contents of one sachet of the Compound A pediatric formulation [granules for oral suspension] was mixed thoroughly with 120 mL of water at ambient temperature). Thereafter, the glass was rinsed twice with approximately 60 mL of water at ambient temperature and the subject was asked to drink the 60 mL of suspension each time. A total of approximately 240 mL of water was administered with the formulation within 5 minutes.
Additional food was then withheld for at least 4 hours following administration. Water was provided as needed until 1 hour pre-dose. Water was allowed beginning 1 hour after the administration of the drug.
Subjects fasted overnight for a minimum of 10 hours prior to dosing.
Subjects were administered the Compound A suspension (the contents of one sachet [granules for oral suspension] was mixed thoroughly with 120 mL of water at ambient temperature). Thereafter, the glass was rinsed twice with approximately 60 mL of water at ambient temperature and the subject was asked to drink the 60 mL of suspension each time. A total of approximately 240 mL of water was administered with the formulation within 5 minutes.
Fasting continued for at least 4 hours following Compound A administration. Water was provided as needed until 1 hour pre-dose. Water was allowed beginning 1 hour after the administration of the drug.
A single dose of the Compound A IR tablet was administered with approximately 240 mL of water, starting at 09:00, to 1 subject per 2 minute intervals.
Fasting continued for at least 4 hours following administration. Water was provided as needed until 1 hour pre-dose. Water was allowed beginning 1 hour after the administration of the drug.
Serial PK samples were obtained pre-dose and at specific timepoints through 48 h post-dose Plasma concentrations of Compound A were determined using validated liquid chromatography with tandem mass spectrometry method.

[2] = Pharmacokinetic study, urinary excretion of unchanged Compound A; assay type: in vivo, human; details: for CL renal: human, urine, oral, 50 mg
Protocol: as §1, §2, §3, §4, §5
Overall (based on data from Cohorts 1 and 2), the fraction excreted in urine is less than 0.1%, thus the contribution of the urinary excretion in the disposition and elimination of the Compound A as a parent compound is negligible. The PK and statistical analysis were performed including all subjects with measurable pre-dose concentrations.

[3] = pediatric formulation 50 mg, fed vs fasted

AUC(0-inf) ([1]; fasting): 11300 ng·h/mL
AUC(0-t) ([1]; fasting): 11100 ng·h/mL
AUC(0-inf) ([1]; fed (high-fat meal)): 11800 ng·h/mL
AUC(0-t) ([1]; fed (high-fat meal)): 11700 ng·h/mL
intra-subject CV % for AUC0-inf [1, 3]: 9%
intra-subject CV % for AUC0-t [1, 3]: 11%
GMR for AUC0-inf ([1]; pediatric formulation 50 mg, fed vs fasted, 90% CI 97.98-107.58%): 102.67%
GMR for AUC0-t ([1]; pediatric formulation 50 mg, fed vs fasted, 90% CI 98.23-109.57%): 103.74%
CL renal ([2]; pediatric formulation 50 mg, fasting): 0.05 mL/min
CL renal ([2]; pediatric formulation 50 mg, fed): 0.055 mL/min
fraction excreted in urine ([2]; overall, based on data from Cohorts 1 and 2): less than 0.1%
GMR for CLr ([2]; pediatric formulation 50 mg, fed vs fasting): 115.56%
SMILES: Cc1cc(S(=O)(=O)Nc2cscn2)c(F)cc1N(C)[C@H]1CCN(Cc2ccccc2)C1 [Compound A, (S)-4-((1-benzylpyrrolidin-3-yl)(methyl)amino)-2-fluoro-5-methyl-N-(thiazol-4-yl)benzenesulfonamide]
